The record followed here is ChEMBL document CHEMBL1121386, “Synthesis and analgesic activity of some 14 beta-substituted analogues of morphine” (1980).

The species entered for the assay is Cavia porcellus. Nature of the assay: Tested for analgesic activity in the guinea pig ileum preparation relative to normorphine (1). Format: functional.

In turn, `CN1CCC23c4c5ccc(O)c4O[C@H]2C(=O)C=C[C@@]3(Br)C1C5` (stereo partly specified) displayed a Relative activity of 0.4.
`CN1CCC23c4c5ccc(O)c4O[C@H]2C(=O)C=C[C@@]3(Cl)C1C5` (stereo partly specified) displayed a Relative activity of 0.5.
To `CN1CCC23c4c5ccc(O)c4O[C@H]2C(=O)C=C[C@@]3([N+](=O)[O-])C1C5` (stereo partly specified) belongs 0.006; to `CC(=O)N[C@@]12C=C[C@H](OC(C)=O)[C@@H]3Oc4c(O)ccc5c4C31CCN(C)C2C5` (stereo partly specified), 0.6; to `CN1CCC23c4c5ccc(O)c4O[C@H]2[C@@H](O)C=C[C@@]3(O)C1C5` (stereo partly specified), 0.8.
The value for `CN1CCC23c4c5ccc(O)c4O[C@H]2[C@@H](O)C=C[C@@]3(S)C1C5` (stereo partly specified) was 0.4.
